System: FL-DCs stimulated with HZ
Test: Chloroquine effect on HZ-induced cytokine production by FL-DCs
Type: cell-based, mouse
Conditions: 30 μM HZ, CQ 10 μM, 24 hours; P<0.05 HZ vs. HZ+CQ
Description: Single cell suspensions of spleen cells (5×10^5 cells/well) were cultured in complete RPMI 1640 medium supplemented with 10% FCS for 48 hours. F1t3 ligand-induced bone marrow-derived DCs (FL-DCs) (1×10^5 cells/well) were generated by culturing bone marrow cells with F1t3 ligand (100 ng/ml; Pepro Tech) for eight to nine days in DMEM medium containing 10% FCS. The cells were stimulated in the presence of the indicated stimuli and supernatants were collected for cytokine ELISA.
Murine TNF-α, IL-12p40, MCP-1, IL-6 (R & D Systems), and IFNα (PBL Bio. Lab) were measured either from the supernatants or the sera by ELISA according to the manufacturer's instructions.
The anti-malarial formulation, chloroquine (CQ), has been reported to inhibit proinflammatory responses during malaria infection in addition to endosome/lysosome maturations and malarial hemozoin crystal formations, whereas the exact mechanism of anti-malarial effects of CQ is still under debate (Int. J. Parasitol. 32: 1645-1653, 2002; Life Sci. 74: 1957-1972, 2004). […] To examine the effect of CQ to HZ-induced proinflammatory responses, FL-DCs were stimulated with HZ in the presence of CQ. […]
(a) To detect DNA contamination, HZ was run on an agarose gel and stained with ethidium bromide. […] Then the supernatants were collected and measured for TNFα or IL-12p40 by ELISA. […] “n.d.” means “not detected”.

CCN(CC)CCCC(C)Nc1ccnc2cc(Cl)ccc12 (stereo not shown) [CQ, chloroquine]
HZ-induced TNFα and IL-12p40 productions by FL-DCs in the presence of CQ: diminished

Source: US10172927B2, “Detection/measurement of malaria infection disease utilizing natural immunity by hemozoin induction, screening of preventative or therapeutic medicine for malaria infection disease, and regulation of natural immunity induction” (Osaka University, priority 2004, dated 2019)
